Measured values from paper PMC4182091, “A Common Minimal Motif for the Ligands of HLA-B*27 Class I Molecules” (PLoS ONE, 2014).
Ends that are not written are not given here.

Columns and labels:
Format in all cases: cell-based
[1] = target: T1, HLA-B*2705 (Homo sapiens, UniProt P01889, D138H/D201E/E176V/E204Q/G107R/H137Y/K202T/N104T/N87E/Q56L/Q94K/R106L/R155S/R180L/S101D/S121N/S48T/Y140D/Y33H/Y91C); assay: HLA/peptide complex stability assay, RMA-S cells transfected with HLA-B*2705; conditions: SD
T1 construct: expressed in transfected cells; host or cells: RMA-S (TAP-deficient murine cell line)

[2] = target: HLA-B*2704 (Homo sapiens, UniProt P01889, A235G/D138H/D201E/E204Q/G107R/H137Y/K202T/N104T/N87E/Q56L/Q94K/R106L/R155S/R180L/S121N/S48T/Y140D/Y33H/Y91C); assay: HLA/peptide complex stability assay, RMA-S cells transfected with HLA-B*2704; conditions: SD
[3] = target: T2, HLA-B*2706 (Homo sapiens, UniProt P01889, A235G/D201E/E204Q/G107R/H137Y/K202T/N104T/N87E/Q56L/Q94K/R106L/R155S/R180L/S121N/S48T/Y33H/Y91C); assay: HLA/peptide complex stability assay, RMA-S cells transfected with HLA-B*2706; conditions: SD
T2 construct: expressed in transfected cells; host or cells: RMA-S (TAP-deficient murine cell line)

[4] = target: T3, HLA-B*2703 (Homo sapiens, UniProt P01889, D138H/D201E/E176V/E204Q/G107R/H137Y/K202T/N104T/N87E/Q56L/Q94K/R106L/R155S/R180L/S101D/S121N/S48T/Y140D/Y33H/Y83H/Y91C); assay: HLA/peptide complex stability assay, RMA-S cells transfected with HLA-B*2703; conditions: EC50, B*2703; SD
T3 construct: expressed in transfected cells; host or cells: RMA-S (TAP-deficient murine cell line)

[5] = target: T4, HLA-B*2701 (Homo sapiens, UniProt P01889, D138H/D201E/D98Y/E176V/E204Q/G107R/H137Y/K202T/L105A/N104T/N87E/Q56L/Q94K/R106L/R155S/R180L/S101N/S121N/S48T/Y140D/Y33H/Y91C); assay: HLA/peptide complex stability assay, RMA-S cells transfected with HLA-B*2701; conditions: SD
T4 construct: expressed in transfected cells; host or cells: RMA-S (TAP-deficient murine cell line)

[6] = target: HLA-B*2702 (Homo sapiens, UniProt P01889, D138H/D201E/E176V/E204Q/G107R/H137Y/K202T/L105A/N104I/N87E/Q56L/Q94K/R106L/R155S/R180L/S101N/S121N/S48T/Y140D/Y33H/Y91C); assay: HLA/peptide complex stability assay, RMA-S cells transfected with HLA-B*2702; conditions: EC50, B*2702; SD
[7] = target: T5, HLA-B*2709 (Homo sapiens, UniProt P01889, D138H/D201E/E176V/E204Q/G107R/H137Y/K202T/N104T/N87E/Q56L/Q94K/R106L/R155S/R180L/S101D/S121N/S48T/Y140H/Y33H/Y91C); assay: HLA/peptide complex stability assay, RMA-S cells transfected with HLA-B*2709; conditions: EC50, B*2709; SD
T5 construct: expressed in transfected cells; host or cells: RMA-S (TAP-deficient murine cell line)

Sequence: RRAIATPGM [Flu PB1 238-246, reference compound]
- EC50 [1]: 3 ± 2 µM
- EC50 [2]: 9 ± 1 µM
- EC50 [3]: 2 ± 1 µM
- EC50 [4]: 2 ± 1 µM
- EC50 [5]: 5 ± 1 µM
- EC50 [6]: 12 ± 4 µM
- EC50 [7]: 2 ± 1 µM
